SMILES strings stand for the structures.

In this experiment the test system is N. fowleri strain Nf69 (ATCC 30215) trophozoites. Briefly: Determination of EC50 values against Naegleria fowleri (growth inhibition, CellTiter Glo, 48 h). In kind it is cell-based. The conditions noted are these: ATCC30215, N. fowleri Nf69 trophozoites, 48 h culture, 37° C., CellTiter Glo luminescence, read-out: EC50 uM against N. fowleri. As to the method: N. fowleri strain Nf69 (ATCC 30215) trophozoites were cultured axenically. Amoeba were seeded at […] in 100 μL of the indicated medium in white TC-treated 96-well plates (Thermo Scientific Nunc Microwell 136101). Cells were seeded into Nelson's Complete Media (NCM, 0.17% liver infusion broth (BD Difco, Franklin Lakes, NJ), 0.17% glucose, 0.012% sodium chloride, 0.0136% potassium phosphate monobasic, 0.0142% sodium phosphate dibasic, 0.0004% calcium chloride, 0.0002% magnesium sulfate, 10% heat-inactivated fetal bovine serum (FBS), 1% penicillin-streptomycin) at 37° C. in 96-well tissue culture plates. Vehicle or compound at concentrations initially ranging from 20 to 0.375 μM were added to cells, followed by culture for 48 h (37° C., 5% CO2). Plates were equilibrated to rt for 15 min and CellTiter Glo reagent was added followed by orbital shaking for 2 min. After an additional incubation (rt, 10 min), luminescence was scored on a BioTek Synergy H1 microplate reader. Luminescence values were used to calculate percent cell growth inhibition (based on controls) for each concentration of compound tested. Averages of triplicates were calculated and fit to dose-response curves for the determination of EC50 values, using Prism 9.0 (GraphPad Software, San Diego, CA). […] Other controls included media alone, cells and media, and vehicle and media. For very potent compounds, concentration of reagent in the dose-response assays were reduced to provide an appropriate range for EC50 value resolution.
Compounds of the present technology were tested for growth inhibition of N. fowleri per General Procedure 13, above.
On the technique in general: Cellular ATP, detected with luciferase, serves as a proxy for viable cell number.
Usually EC50 stands for the midpoint of the concentration-response curve. As to `CN1CCC[C@H]2c3nc4cc(Br)ccc4c(=O)n3CC[C@H]21` (racemic) [cis-5l, (±)-(4aR,13bR)-11-bromo-4-methyl-1,2,3,4,4a,5,6,13b-octahydro-8H-[1,6]naphthyridino[5,6-b]quinazolin-8-one], the EC50 lay in the range of 1 to 10 µM.

In the case of `CN1CCO[C@H]2c3nc4ccc(C(F)(F)F)cc4c(=O)n3CC[C@H]21` (racemic) [cis-5x, (±)-(4aR,13bR)-4-methyl-10-(trifluoromethyl)-3,4,4a,5,6,13b-hexahydro-[1,4]oxazino[2′,3′:3,4]pyrido[2,1-b]quinazolin-8(2H)-one], the EC50 was more than 10 µM. Turning to `CN1CCC[C@@H]2c3nc4ccc(Cl)cc4c(=O)n3CC[C@H]21` [trans-10a-ent 1, (4aR,13bS)-10-chloro-4-methyl-1,2,3,4,4a,5,6,13b-octahydro-8H-[1,6]naphthyridino[5,6-b]quinazolin-8-one], the 50% effective concentration (EC50) was 0.1 to 1 µM. For the compound `COc1cc2nc3n(c(=O)c2cc1Cl)CC[C@@H]1[C@H]3CCCN1C` (racemic) [cis-5gg, (±)-(4aR,13bR)-10-chloro-11-methoxy-4-methyl-1,2,3,4,4a,5,6,13b-octahydro-8H-[1,6]naphthyridino[5,6-b]quinazolin-8-one], the EC50 was 0.1 to 1 µM. As for `CN(C)C(=O)CN1CCC[C@@H]2c3nc4cc(Cl)c(Cl)cc4c(=O)n3CC[C@H]21` (racemic) [trans-7c, (±)-2-((4aR,13bS)-10,11-dichloro-8-oxo-2,3,5,6,8,13b-hexahydro-1H-[1,6]naphthyridino[5,6-b]quinazolin-4(4aH)-yl)-N,N-dimethylacetamide], the 50% effective concentration (EC50) is 0.1 to 1 µM. The figure for `Cn1c([C@@H]2CCCN(Cc3cnccn3)C2)nc2cc(Cl)c(Cl)cc2c1=O` [Compound R-14x, (R)-6,7-dichloro-3-methyl-2-(1-(pyrazin-2-ylmethyl)piperidin-3-yl)quinazolin-4(3H)-one] is more than 10 µM. The same measure for `COc1cc2nc3n(c(=O)c2cc1Cl)CC[C@@H]1[C@@H]3CCCN1CC1CCC1` (racemic) [trans-7hh, (±)-(4aR,13bS)-10-chloro-4-(cyclobutylmethyl)-11-methoxy-1,2,3,4,4a,5,6,13b-octahydro-8H-[1,6]naphthyridino[5,6-b]quinazolin-8-one]: 0.0001 to 0.1 µM; for `CN1CCC[C@@H]2c3nc4ccc(C(F)(F)F)cc4c(=O)n3CC[C@H]21` (racemic) [trans-5j, (±)-(4aR,13bS)-4-methyl-10-(trifluoromethyl)-1,2,3,4,4a,5,6,13b-octahydro-8H-[1,6]naphthyridino[5,6-b]quinazolin-8-one]: 1 to 10 µM; for `COc1cc(Cl)cc2c(=O)n3c(nc12)[C@H]1CCCN(C)[C@@H]1CC3` (racemic) [trans-5t, (±)-(4aR,13bS)-10-chloro-12-methoxy-4-methyl-1,2,3,4,4a,5,6,13b-octahydro-8H-[1,6]naphthyridino[5,6-b]quinazolin-8-one]: more than 10 µM.

For the compound `Cn1c([C@@H]2CCCN(CC3COC3)C2)nc2ccc(C#N)cc2c1=O` [Compound R-14o, (R)-3-methyl-2-(1-(oxetan-3-ylmethyl)piperidin-3-yl)-4-oxo-3,4-dihydroquinazoline-6-carbonitrile], the EC50 is more than 10 µM. The figure for `Cn1c([C@@H]2CCCN(CCN3CCCC3)C2)nc2cc(Cl)c(Cl)cc2c1=O` [Compound R-14dd, (R)-6,7-dichloro-3-methyl-2-(1-(2-(pyrrolidin-1-yl)ethyl)piperidin-3-yl)quinazolin-4(3H)-one] is 0.1 to 1 µM; for `COc1cc2nc3n(c(=O)c2cc1Cl)CC[C@H]1[C@H]3CCCN1CC1COC1` (single isomer, unassigned) [trans-10j-ent-2] it is 0.0001 to 0.1 µM. The same measure for `CC(C)CN1CCC[C@@H]2c3nc4cc(Cl)c(Cl)cc4c(=O)n3CC[C@H]21` (racemic) [trans-7l, (±)-(4aR,13bS)-10,11-dichloro-4-isobutyl-1,2,3,4,4a,5,6,13b-octahydro-8H-[1,6]naphthyridino[5,6-b]quinazolin-8-one]: 0.0001 to 0.1 µM.

Take `Cn1c(C2CN(CC3COC3)C2)nc2cc(Cl)c(Cl)cc2c1=O` [Compound 14i, 6,7-dichloro-3-methyl-2-(1-(oxetan-3-ylmethyl)azetidin-3-yl)quinazolin-4(3H)-one]: the EC50 was more than 10 µM.

Take `Cn1c([C@@H]2CCCN(CCN3CCOCC3)C2)nc2cc(Cl)c(Cl)cc2c1=O` [Compound R-14bb, (R)-6,7-dichloro-3-methyl-2-(1-(2-morpholinoethyl)piperidin-3-yl)quinazolin-4(3H)-one]: the EC50 fell in the range of 1 to 10 µM. The figure for `O=c1c2cc(Cl)c(Cl)cc2nc2n1CC[C@@H]1[C@@H]2CCCN1Cc1ccc(Cl)cc1` (racemic) [Compound 7t, (±)-(4aR,13bS)-10,11-dichloro-4-(4-chlorobenzyl)-1,2,3,4,4a,5,6,13b-octahydro-8H-[1,6]naphthyridino[5,6-b]quinazolin-8-one] is more than 10 µM; for `Cc1cccc2nc3n(c(=O)c12)CC[C@@H]1[C@H]3CCCN1C` (racemic) [cis-5b, (±)-(4aR,13bR)-4,9-dimethyl-1,2,3,4,4a,5,6,13b-octahydro-8H-[1,6]naphthyridino[5,6-b]quinazolin-8-one] it is more than 10 µM; for `CN1CCC[C@H]2c3nc4cc(C(F)(F)F)ccc4c(=O)n3CC[C@H]21` (racemic) [cis-5n, (±)-(4aR,13bR)-4-methyl-11-(trifluoromethyl)-1,2,3,4,4a,5,6,13b-octahydro-8H-[1,6]naphthyridino[5,6-b]quinazolin-8-one] it is 1 to 10 µM. The figure for `Cn1c([C@@H]2CCCN(CC3CCOCC3)C2)nc2cc(Cl)c(Cl)cc2c1=O` [Compound R-14d, (R)-6,7-dichloro-3-methyl-2-(1-((tetrahydro-2H-pyran-4-yl)methyl)piperidin-3-yl)quinazolin-4(3H)-one] is more than 10 µM; for `CN1CCC[C@@H]2c3nc4ccc(Cl)cc4c(=O)n3CC[C@H]21` (racemic) [trans-5d, (±)-(4aR,13bS)-10-chloro-4-methyl-1,2,3,4,4a,5,6,13b-octahydro-8H-[1,6]naphthyridino[5,6-b]quinazolin-8-one] it is 0.1 to 1 µM. `COc1ccc2c(=O)n3c(nc2c1)[C@@H]1CCCN(C)[C@@H]1CC3` (racemic) [cis-50, (±)-(4aR,13bR)-11-methoxy-4-methyl-1,2,3,4,4a,5,6,13b-octahydro-8H-[1,6]naphthyridino[5,6-b]quinazolin-8-one]: the EC50 lay in the range of 1 to 10 µM. The figure for `COCCN1CCC[C@@H]2c3nc4cc(Cl)c(Cl)cc4c(=O)n3CC[C@H]21` (racemic) [trans-7i, (±)-(4aR,13bS)-10,11-dichloro-4-(2-methoxyethyl)-1,2,3,4,4a,5,6,13b-octahydro-8H-[1,6]naphthyridino[5,6-b]quinazolin-8-one] is 0.0001 to 0.1 µM; for `Cc1cccc2nc3n(c(=O)c12)CC[C@@H]1[C@@H]3CCCN1C` (racemic) [trans-5b, (±)-(4aR,13bS)-4,9-dimethyl-1,2,3,4,4a,5,6,13b-octahydro-8H-[1,6]naphthyridino[5,6-b]quinazolin-8-one] it is more than 10 µM; for `O=c1c2cc(Cl)c(Cl)cc2nc2n1CC[C@@H]1[C@@H]2CCCN1CCO` (racemic) [trans-7j, (±)-(4aR,13bS)-10,11-dichloro-4-(2-hydroxyethyl)-1,2,3,4,4a,5,6,13b-octahydro-8H-[1,6]naphthyridino[5,6-b]quinazolin-8-one] it is 0.0001 to 0.1 µM. The figure for `COc1cc2nc3n(c(=O)c2cc1Cl)CC[C@@H]1[C@@H]3CCCN1C` (racemic) [trans-5gg, (±)-(4aR,13bS)-10-chloro-11-methoxy-4-methyl-1,2,3,4,4a,5,6,13b-octahydro-8H-[1,6]naphthyridino[5,6-b]quinazolin-8-one] is 0.1 to 1 µM; for `CN1CCO[C@@H]2c3nc4ccc(Cl)cc4c(=O)n3CC[C@H]21` (racemic) [trans-5w, (±)-(4aR,13bS)-10-chloro-4-methyl-3,4,4a,5,6,13b-hexahydro-[1,4]oxazino[2′,3′:3,4]pyrido[2,1-b]quinazolin-8(2H)-one] it is more than 10 µM; for `COc1cc2nc3n(c(=O)c2cc1Cl)CC[C@@H]1[C@@H]3CCCN1CC1COC1` (racemic) [trans-7dd, (±)-(4aR,13bS)-10-chloro-11-methoxy-4-(oxetan-3-ylmethyl)-1,2,3,4,4a,5,6,13b-octahydro-8H-[1,6]naphthyridino[5,6-b]quinazolin-8-one] it is 0.0001 to 0.1 µM. Consider `O=c1c2cc(Cl)c(Cl)cc2nc2n1CC[C@@H]1[C@@H]2CCCN1CC1CCOCC1` (racemic) [trans-7b, (±)-(4aR,13bS)-10,11-dichloro-4-((tetrahydro-2H-pyran-4-yl)methyl)-1,2,3,4,4a,5,6,13b-octahydro-8H-[1,6]naphthyridino[5,6-b]quinazolin-8-one], for which the EC50 lay within 0.0001 to 0.1 µM.

As to `CC(C)N1CCC[C@H](c2nc3cc(Cl)c(Cl)cc3c(=O)n2C)C1` [Compound S-14a, (S)-6,7-dichloro-2-(1-isopropylpiperidin-3-yl)-3-methylquinazolin-4(3H)-one], the EC50 is more than 10 µM.

The values are drawn from patent publication US20250154152A1, “INHIBITORS OF NAEGLERIA FOWLERI” (Wisconsin Alumni Research Foundation, priority 2023, published 2025).
